Data published in patent publication US20100160454A1, “ANTIMICROBIAL AGENTS, COMPOSITIONS AND PRODUCTS CONTAINING THE SAME, AND METHODS OF USING THE COMPOSITIONS AND PRODUCTS” (Eastman Chemical Company, priority 2008, published 2010).

Key:
Test in all cases: Microbiological challenge testing in BPW broth, graded subculture counts
Format in all cases: cell-based
Aeromonas sp. Wild type = tested on: Aeromonas sp. Wild type
Summary of the method: (§1)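 Challenge substrates of BPW plus 1% dextrose containing the test material (w/v) or broth alone were inoculated to 10^5–10^6 CFU/mL. Bacteria had been precultured in dextrose TSB at 35 °C for at least 96 h. CFU/mL came from plate count × dilution factor on PCA after ≥48 h at 35 °C.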

[1] = tested on: Bacillus subtilis Wild type
Summary of the method: as §1

[2] = tested on: Escherichia coli ATCC 25922; conditions: E. Coli
Summary of the method: as §1

[3] = tested on: Pseudomonas aeruginosa Wild type; conditions: P. aeruginosa
Summary of the method: as §1

[4] = tested on: Staphylococcus epidermidis ATCC 12228
Summary of the method: as §1

[5] = tested on: Streptococcus mutans ATCC 35668
Summary of the method: as §1

With `OCC1CCCCC1CO` (stereo not drawn) [1,2-CHDM, 1,2-cyclohexanedimethanol] the “Aeromonas sp growth grade, 3 day” value (Aeromonas sp. Wild type; 0.5% weight/volume) was 5 (More than 10,000 colonies estimated (thus more than 100,000 CFU/mL)), the “Aeromonas sp growth grade, 14 day” value (Aeromonas sp. Wild type; 0.5% weight/volume) was 4 (1000 to 10,000 colonies countable (thus 10,000 CFU/mL to 100,000 CFU/mL)) and the “Aeromonas sp growth grade, 30 day” value (Aeromonas sp. Wild type; 0.5% weight/volume) was 4 (1000 to 10,000 colonies countable (thus 10,000 CFU/mL to 100,000 CFU/mL)). The “Aeromonas sp growth grade, 3 day” value (Aeromonas sp. Wild type; 1.25% weight/volume) was 3 (100 to 1000 colonies (thus 1000 to 10,000 CFU/mL)), the “Aeromonas sp growth grade, 14 day” value (Aeromonas sp. Wild type; 1.25% weight/volume) was 2 (52 to 100 colonies counted (thus 520 to 1000 CFU/mL)) and the “Aeromonas sp growth grade, 30 day” value (Aeromonas sp. Wild type; 1.25% weight/volume) was 1 (0 to 51 colonies counted (thus 10 to 510 CFU/mL based on 0.1-mL sample)). For the same compound, the “Aeromonas sp growth grade, 3 day” value (Aeromonas sp. Wild type; 2.5% weight/volume) was 0, the “Aeromonas sp growth grade, 14 day” value (Aeromonas sp. Wild type; 2.5% weight/volume) was 1 (0 to 51 colonies counted (thus 10 to 510 CFU/mL based on 0.1-mL sample)) and the “Aeromonas sp growth grade, 30 day” value (Aeromonas sp. Wild type; 2.5% weight/volume) was 0. The “Aeromonas sp growth grade, 3 day” value (Aeromonas sp. Wild type; 5.0% weight/volume) was 0, the “Aeromonas sp growth grade, 14 day” value (Aeromonas sp. Wild type; 5.0% weight/volume) was 0 and the “Aeromonas sp growth grade, 30 day” value (Aeromonas sp. Wild type; 5.0% weight/volume) was 0. For the same compound, the “B. subtillis growth grade, 3 day” value ([1]; 0.5% weight/volume) was 4 (1000 to 10,000 colonies countable (thus 10,000 CFU/mL to 100,000 CFU/mL)), the “B. subtillis growth grade, 14 day” value ([1]; 0.5% weight/volume) was 3 (100 to 1000 colonies (thus 1000 to 10,000 CFU/mL)) and the “B. subtillis growth grade, 30 day” value ([1]; 0.5% weight/volume) was 4 (1000 to 10,000 colonies countable (thus 10,000 CFU/mL to 100,000 CFU/mL)). For the same compound, the “B. subtillis growth grade, 3 day” value ([1]; 1.25% weight/volume) was 2 (52 to 100 colonies counted (thus 520 to 1000 CFU/mL)), the “B. subtillis growth grade, 14 day” value ([1]; 1.25% weight/volume) was 1 (0 to 51 colonies counted (thus 10 to 510 CFU/mL based on 0.1-mL sample)) and the “B. subtillis growth grade, 30 day” value ([1]; 1.25% weight/volume) was 1 (0 to 51 colonies counted (thus 10 to 510 CFU/mL based on 0.1-mL sample)). The “B. subtillis growth grade, 3 day” value ([1]; 2.5% weight/volume) was 0, the “B. subtillis growth grade, 14 day” value ([1]; 2.5% weight/volume) was 0 and the “B. subtillis growth grade, 30 day” value ([1]; 2.5% weight/volume) was 0. For the same compound, the “B. subtillis growth grade, 3 day” value ([1]; 5.0% weight/volume) was 0, the “B. subtillis growth grade, 14 day” value ([1]; 5.0% weight/volume) was 0 and the “B. subtillis growth grade, 30 day” value ([1]; 5.0% weight/volume) was 0. For the same compound, the Grade ([2]; 0.5% (wt/vol), 3 day) was 5 (More than 10,000 colonies estimated (thus more than 100,000 CFU/mL)), the Grade ([2]; 0.5% (wt/vol), 14 day) was 4 (1000 to 10,000 colonies countable (thus 10,000 CFU/mL to 100,000 CFU/mL)) and the Grade ([2]; 0.5% (wt/vol), 30 day) was 4 (1000 to 10,000 colonies countable (thus 10,000 CFU/mL to 100,000 CFU/mL)). The Grade ([2]; 1.25% (wt/vol), 3 day) was 4 (1000 to 10,000 colonies countable (thus 10,000 CFU/mL to 100,000 CFU/mL)), the Grade ([2]; 1.25% (wt/vol), 14 day) was 2 (52 to 100 colonies counted (thus 520 to 1000 CFU/mL)) and the Grade ([2]; 1.25% (wt/vol), 30 day) was 3 (100 to 1000 colonies (thus 1000 to 10,000 CFU/mL)). The Grade ([2]; 2.5% (wt/vol), 3 day) was 2 (52 to 100 colonies counted (thus 520 to 1000 CFU/mL)), the Grade ([2]; 2.5% (wt/vol), 14 day) was 0 and the Grade ([2]; 2.5% (wt/vol), 30 day) was 0. It also gave a Grade ([2]; 5.0% (wt/vol), 3 day) of 0, a Grade ([2]; 5.0% (wt/vol), 14 day) of 0 and a Grade ([2]; 5.0% (wt/vol), 30 day) of 0. The Grade ([3]; 0.5% (wt/vol), 3 day) was 4 (1000 to 10,000 colonies countable (thus 10,000 CFU/mL to 100,000 CFU/mL)), the Grade ([3]; 0.5% (wt/vol), 13 day) was 4 (1000 to 10,000 colonies countable (thus 10,000 CFU/mL to 100,000 CFU/mL)) and the Grade ([3]; 0.5% (wt/vol), 30 day) was 4 (1000 to 10,000 colonies countable (thus 10,000 CFU/mL to 100,000 CFU/mL)). The Grade ([3]; 1.25% (wt/vol), 3 day) was 2.7, the Grade ([3]; 1.25% (wt/vol), 13 day) was 1 (0 to 51 colonies counted (thus 10 to 510 CFU/mL based on 0.1-mL sample)) and the Grade ([3]; 1.25% (wt/vol), 30 day) was 3 (100 to 1000 colonies (thus 1000 to 10,000 CFU/mL)). For the same compound, the Grade ([3]; 2.5% (wt/vol), 3 day) was 1 (0 to 51 colonies counted (thus 10 to 510 CFU/mL based on 0.1-mL sample)), the Grade ([3]; 2.5% (wt/vol), 13 day) was 0 and the Grade ([3]; 2.5% (wt/vol), 30 day) was 0. For the same compound, the Grade ([3]; 5.0% (wt/vol), 3 day) was 0, the Grade ([3]; 5.0% (wt/vol), 13 day) was 0 and the Grade ([3]; 5.0% (wt/vol), 30 day) was 0. For the same compound, the “S. epidermidis growth grade, 3 day” value ([4]; 0.5% weight/volume) was 4 (1000 to 10,000 colonies countable (thus 10,000 CFU/mL to 100,000 CFU/mL)), the “S. epidermidis growth grade, 13 day” value ([4]; 0.5% weight/volume) was 3 (100 to 1000 colonies (thus 1000 to 10,000 CFU/mL)) and the “S. epidermidis growth grade, 30 day” value ([4]; 0.5% weight/volume) was 4 (1000 to 10,000 colonies countable (thus 10,000 CFU/mL to 100,000 CFU/mL)). The “S. epidermidis growth grade, 3 day” value ([4]; 1.25% weight/volume) was 2.3, the “S. epidermidis growth grade, 13 day” value ([4]; 1.25% weight/volume) was 1 (0 to 51 colonies counted (thus 10 to 510 CFU/mL based on 0.1-mL sample)) and the “S. epidermidis growth grade, 30 day” value ([4]; 1.25% weight/volume) was 3 (100 to 1000 colonies (thus 1000 to 10,000 CFU/mL)). The “S. epidermidis growth grade, 3 day” value ([4]; 2.5% weight/volume) was 0, the “S. epidermidis growth grade, 13 day” value ([4]; 2.5% weight/volume) was 0 and the “S. epidermidis growth grade, 30 day” value ([4]; 2.5% weight/volume) was 0. For the same compound, the “S. epidermidis growth grade, 3 day” value ([4]; 5.0% weight/volume) was 0, the “S. epidermidis growth grade, 13 day” value ([4]; 5.0% weight/volume) was 0 and the “S. epidermidis growth grade, 30 day” value ([4]; 5.0% weight/volume) was 0. The “S. mutans growth grade, 3 day” value ([5]; 0.5% weight/volume) was 4 (1000 to 10,000 colonies countable (thus 10,000 CFU/mL to 100,000 CFU/mL)), the “S. mutans growth grade, 13 day” value ([5]; 0.5% weight/volume) was 4 (1000 to 10,000 colonies countable (thus 10,000 CFU/mL to 100,000 CFU/mL)) and the “S. mutans growth grade, 30 day” value ([5]; 0.5% weight/volume) was 4 (1000 to 10,000 colonies countable (thus 10,000 CFU/mL to 100,000 CFU/mL)). The “S. mutans growth grade, 3 day” value ([5]; 1.25% weight/volume) was 2 (52 to 100 colonies counted (thus 520 to 1000 CFU/mL)), the “S. mutans growth grade, 13 day” value ([5]; 1.25% weight/volume) was 0 and the “S. mutans growth grade, 30 day” value ([5]; 1.25% weight/volume) was 0. The “S. mutans growth grade, 3 day” value ([5]; 2.5% weight/volume) was 1 (0 to 51 colonies counted (thus 10 to 510 CFU/mL based on 0.1-mL sample)), the “S. mutans growth grade, 13 day” value ([5]; 2.5% weight/volume) was 0 and the “S. mutans growth grade, 30 day” value ([5]; 2.5% weight/volume) was 0. The “S. mutans growth grade, 3 day” value ([5]; 5.0% weight/volume) was 0, the “S. mutans growth grade, 13 day” value ([5]; 5.0% weight/volume) was 0 and the “S. mutans growth grade, 30 day” value ([5]; 5.0% weight/volume) was 0.
